What was measured:
ERR = experiment: GAL4-ERR reporter assay in CV-1 cells, potency with versus without PGC-1a; type: cell-based; conditions: activated ERR at lower doses in the presence of PGC-1a
Method: Additional compounds were tested for their effects on ERR activation (Tables 3-6). DY159, DY162, DY163 and DY164 as well as DY131 can activate all three ERRs (ERRα/β/γ) in the presence of PGC-1a. […] Therefore, these compounds have two novel features yet to be reported: a) they are selective ERR modulators or coactivator-selective ligands, i.e., they activate ERR better in the presence of PGC-1a then the other coactivators that are normally present in CV-1 cells; and b) these are the first synthetic compounds reported to ACTIVATE ERRα. Previously reported compounds repress the constitutive activity of ERRα (see Willy et al., supra).
Referring to Tables 1-6, cell based transactivation assays were performed in CV-1 cells as described. See Wang, H., Chen, J., Hollister, K., Sowers, L. C., Forman, B. M., Endogenous bile acids are ligands for the nuclear receptor FXR/BAR, Mol Cell 1999, 3, 543-553. ERR activity was assayed with a GAL4 reporter construct and fusion proteins containing the ligand binding domains of human ERRα, human ERR β and mouse ERRγ linked to the DNA binding domain of yeast GAL4. Human ERα and ERβ were examined as full-length proteins using an estrogen receptor responsive reporter construct.
To test the effect of the compounds on ERR and ER, CV-1 cells were transiently transfected with expression vectors for the receptors along with appropriate reporter constructs according to methods known in the art. The receptors to be tested were expressed in CV-1 cells. Suitable reporter gene constructs are well known to skilled workers in the fields of biochemistry and molecular biology. All transfections additionally contained an expression vector with a cytomegalovirus promoter (pCMV-β-gal) as an internal control. Suitable constructs for use in these studies may conveniently be cloned into a cytomegalovirus expression vector (pCMV). For example, pCMV-β-gal contains the E. coli β-galactosidase gene expressed under control of the cytomegalovirus promoter/enhancer. Other vectors known in the art can be used in the methods of the present invention. […]

[1] = biological target: T1, GAL-L-hERRb (human ERRβ ligand binding domain fused to GAL4 DNA binding domain) (Homo sapiens, UniProt O95718); experiment: GAL4 reporter transactivation assay in CV-1 cells, GAL-L-hERRb; type: cell-based; conditions: for Fold activation, GAL-L-hERRb + PGC-1a / Fold activation, GAL-L-hERRb: CV-1; for Fold activation, GAL-L-hERRb + PGC-1a: reporter 0.42:vector 0.00875:PGC-1a 0.035; for Fold activation, GAL-L-hERRb: reporter 0.42:vector 0.00875, no PGC-1a; for Activation of ERRβ: in the presence of PGC-1a
T1 construct: expressed in transfected cells; host or cells: CV-1
T1 sequence (O95718 208-432 limits assumed): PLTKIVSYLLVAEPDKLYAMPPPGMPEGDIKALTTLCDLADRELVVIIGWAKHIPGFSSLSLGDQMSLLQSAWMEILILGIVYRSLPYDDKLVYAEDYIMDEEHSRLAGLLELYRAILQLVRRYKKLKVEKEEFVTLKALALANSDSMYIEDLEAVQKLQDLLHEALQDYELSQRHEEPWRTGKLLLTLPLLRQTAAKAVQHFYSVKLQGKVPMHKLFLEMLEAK

[2] = biological target: T2, GAL-mERRg (mouse ERRγ ligand binding domain fused to GAL4 DNA binding domain) (Mus musculus, UniProt P62509); experiment: GAL4 reporter transactivation assay in CV-1 cells, GAL-mERRg; type: cell-based; conditions: for Fold activation, GAL-mERRg + PGC-1a / Fold activation, GAL-mERRg: CV-1; for Fold activation, GAL-mERRg + PGC-1a: reporter 0.42:vector 0.00875:PGC-1a 0.035; for Fold activation, GAL-mERRg: reporter 0.42:vector 0.00875, no PGC-1a; for Activation of ERRγ: in the presence of PGC-1a
T2 construct: expressed in transfected cells; host or cells: CV-1
T2 sequence (P62509 233-457 limits assumed): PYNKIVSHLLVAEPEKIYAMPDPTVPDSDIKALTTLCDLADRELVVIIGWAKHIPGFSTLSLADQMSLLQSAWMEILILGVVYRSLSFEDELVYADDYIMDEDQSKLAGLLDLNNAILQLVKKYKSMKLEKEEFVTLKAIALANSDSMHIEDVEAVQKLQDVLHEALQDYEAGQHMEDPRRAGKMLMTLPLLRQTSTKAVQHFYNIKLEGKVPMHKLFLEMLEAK

SMILES	Potency of ERR activation with versus without PGC-1a (ERR)	Fold activation, GAL-L-hERRb + PGC-1a ([1]; 1 μM)	Fold activation, GAL-L-hERRb + PGC-1a ([1]; 3 μM (first 3 μM column))	Fold activation, GAL-L-hERRb + PGC-1a ([1]; 3 μM (second 3 μM column))	Fold activation, GAL-L-hERRb + PGC-1a ([1]; 10 μM)	Fold activation, GAL-L-hERRb + PGC-1a ([1]; 30 μM)	Fold activation, GAL-L-hERRb ([1]; 1 μM)	Fold activation, GAL-L-hERRb ([1]; 3 μM (first 3 μM column))	Fold activation, GAL-L-hERRb ([1]; 3 μM (second 3 μM column))	Fold activation, GAL-L-hERRb ([1]; 10 μM)	Fold activation, GAL-L-hERRb ([1]; 30 μM)	Activation of ERRβ [1]	Fold activation, GAL-mERRg + PGC-1a ([2]; 1 μM)	Fold activation, GAL-mERRg + PGC-1a ([2]; 3 μM (first 3 μM column))	Fold activation, GAL-mERRg + PGC-1a ([2]; 3 μM (second 3 μM column))	Fold activation, GAL-mERRg + PGC-1a ([2]; 10 μM)	Fold activation, GAL-mERRg + PGC-1a ([2]; 30 μM)	Fold activation, GAL-mERRg ([2]; 1 μM)	Fold activation, GAL-mERRg ([2]; 3 μM (first 3 μM column))	Fold activation, GAL-mERRg ([2]; 3 μM (second 3 μM column))	other results
Cc1cccc(C=NNC(=O)c2ccc(O)cc2)c1 [DY159, 4-Hydroxy-benzoic acid (3-methyl-benzylidene)-hydrazide]	more potent activators in the presence of PGC-1a than without	1.38 fold	1.79 fold	1.47 fold	1.89 fold	2.45 fold	1.29 fold	1.25 fold	0.98 fold	1.33 fold	1.36 fold	can activate	1.16 fold	1.45 fold	1.80 fold	2.70 fold	2.56 fold	1.39 fold	1.28 fold	1.22 fold	melting point: 241.9 °C; Fold activation, GAL-mERRg ([2]; 10 μM): 1.36 fold; Fold activation, GAL-mERRg ([2]; 30 μM): 1.01 fold; Activation of ERRγ [2]: can activate
O=C(NN=Cc1ccccc1)c1ccc(O)cc1 [DY162, 4-Hydroxy-benzoic acid benzylidene-hydrazide]	more potent activators in the presence of PGC-1a than without	0.78 fold	1.06 fold	1.65 fold	1.79 fold	2.61 fold	1.05 fold	0.87 fold	0.96 fold	1.57 fold	1.48 fold	can activate	1.06 fold	1.53 fold	1.63 fold	2.45 fold	2.46 fold	0.89 fold	0.92 fold	1.40 fold	Fold activation, GAL-L-hERRb + PGC-1a ([1]; 0.3 μM): 0.77 fold; Fold activation, GAL-L-hERRb ([1]; 0.3 μM): 1.09 fold; Fold activation, GAL-mERRg + PGC-1a ([2]; 0.3 μM): 0.92 fold; Fold activation, GAL-mERRg ([2]; 0.3 μM): 1.04 fold; Fold activation, GAL-mERRg ([2]; 10 μM): 1.88 fold; Fold activation, GAL-mERRg ([2]; 30 μM): 1.59 fold; Activation of ERRγ [2]: can activate

From patent publication US9085550B2, “Ligands for estrogen related receptors and methods for synthesis of said ligands” (CITY OF HOPE, priority 2005, dated 2015)
